SMILES strings stand for the structures.

This note sets out measurements from US9334257B2, “Methods of purifying and identifying the presence of and levels of procyanidin oligomeric compounds” (The Hershey Company, priority 2012, dated 2016).

The data set is described as follows: Partition coefficient of cocoa procyanidin oligomers in the CPC biphasic solvent system. To be noted: typical CPC runs as described; biphasic ethyl acetate:ethanol:water (6:1:5), ascending mode; unfermented cocoa bean sample of 8.5 grams. The format is physicochemical. On the procedure: A sample is mixed with water and prepared for FCPC with a KROMATON device and rotor. Columns are prepared with biphasic solvent mixture of ethyl acetate:ethanol:water at 6:1:5 ratio. The solvent used can be modified from this ratio by calculating the partition coefficients and comparing to that of the ethyl acetate:ethanol:water example. The FCPC is run in ascending mode for purifying procyanidins, so that the mobile phase is the upper phase in the resting columns.
These quantities are isolated from an unfermented cocoa bean sample of 8.5 grams. In comparison, with a diol HPLC column, 150×30 mm, injecting about 270 mg of the same sample per run yields only about 25 mg of DP2-4 and less than 1 mg of DP11-12. Clearly, the CPC methods of the invention provide commercially viable methods for producing usable quantities of a range of procyanidin oligomers, especially from cocoa sources.
Consider `Oc1cc(O)c2c(c1)O[C@H](c1ccc(O)c(O)c1)[C@H](O)C2` [epicatechin], for which the Partition coefficient is 0.84. `Oc1cc(O)c2c(c1)O[C@H](c1ccc(O)c(O)c1)[C@H](O)[C@H]2c1c(O)cc(O)c2c1O[C@H](c1ccc(O)c(O)c1)[C@H](O)C2` [procyanidin B2] showed a Partition coefficient of 0.63. `Oc1cc(O)c2c(c1)O[C@H](c1ccc(O)c(O)c1)[C@H](O)[C@H]2c1c(O)cc2c(c1O)C[C@@H](O)[C@@H](c1ccc(O)c(O)c1)O2` [procyanidin B5] gave a Partition coefficient of 0.94.
